In patent US9585885B2, “Substituted pyrido[2,3-g]quinazolines as dopamine D2 receptor agonists” (KISSEI PHARMACEUTICAL CO., LTD., priority 2012, dated 2017):
Where two headings read alike, the source gives them in different places.

Columns and labels:
[1] = target: T1, human dopamine D2 receptor (Homo sapiens, UniProt P14416); assay: Stimulating activities of human dopamine D2 receptor, [35S]GTPγS binding to hD2R#7 (HEK293) membrane homogenates; assay type: biochemical
T1 construct: expressed in transfected cells
T1 sequence (P14416 whole entry): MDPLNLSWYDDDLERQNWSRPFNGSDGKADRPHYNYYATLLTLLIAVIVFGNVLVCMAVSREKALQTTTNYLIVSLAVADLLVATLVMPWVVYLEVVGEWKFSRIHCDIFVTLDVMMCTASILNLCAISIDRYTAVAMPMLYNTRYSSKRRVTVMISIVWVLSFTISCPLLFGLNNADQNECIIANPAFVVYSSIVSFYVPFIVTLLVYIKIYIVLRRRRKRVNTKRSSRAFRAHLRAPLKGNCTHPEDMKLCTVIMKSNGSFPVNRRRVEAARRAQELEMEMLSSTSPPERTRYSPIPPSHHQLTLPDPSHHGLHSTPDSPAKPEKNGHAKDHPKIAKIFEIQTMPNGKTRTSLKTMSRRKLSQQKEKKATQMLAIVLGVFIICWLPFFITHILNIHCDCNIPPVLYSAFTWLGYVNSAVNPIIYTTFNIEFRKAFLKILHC
Description: Identification Test of Stimulating Activities on Human Dopamine D2 Receptor
The cells, which were grown to confluence in 150 mm dishes (IWAKI), were harvested with isotonic buffer (50 mM Tris (Sigma), 2 mM ethylenediamine-tetraacetic acid (Invitrogen), and 125 mM sodium chloride (Wako Pure Chemicals), pH 7.4) and centrifuged at 1880×g and 4° C. for 10 minutes, and the cell pellets were then suspended in isotonic buffer. After being subjected to one cycle of freezing and thawing, the cells were centrifuged at 1880×g and 4° C. for 10 minutes, and the cell pellets were suspended in isotonic buffer. The cells were centrifuged at 1880×g and 4° C. for 10 minutes, and the cell pellets were suspended in isotonic buffer and homogenate buffer (10 mM sodium bicarbonate (Nacalai) and 5 mM ethylenediamine-tetraacetic acid, pH 7.5). The volume ratio of isotonic-to-homogenate buffer was 2. The cells were sonicated and centrifuged at 1880×g and 4° C. for 10 minutes, and the supernatants were ultracentrifuged at 80000×g and 4° C. for 30 minutes. The final cell pellets were suspended in homogenate buffer containing protease inhibitor cocktail (Nacalai) and stored at −80° C. until use. The protein concentration was determined using BCA Protein Assay Kit (Pierce) in accordance with the manufacturer's instructions.
The stimulating activities of human dopamine D2 receptor was determined by measuring the binding potential of [^35S]-guanosine 5′-[gamma-thio]triphosphate ([^35S]GTPγS, PerkinElmer) according to the method described by Newman-Tancredi A. et al. (Naunyn-Schmiedeberg's Arch Pharmacol, 1999, vol. 359, pp. 447-453) with a minor modification. Test compounds and dopamine hydrochloride (Fluka) as positive control were dissolved in dimethyl sulfoxide (CARLBIOCHEM), resulting in 30 mM. The both compounds were diluted with assay buffer (50 mM Tris, 100 mM sodium chloride, 5 mM magnesium chloride (Nacalai), 1 mM ethylenediamine-tetraacetic acid, 1 mM dithiothreitol (Wako Pure Chemicals), 10 μM guanosine diphosphate (Wako Pure Chemicals) and 0.5% bovine serum albumin (Sigma), pH 7.4) to a final concentration of 100 pM (only test compounds), 1 nM, 10 nM, 100 nM, 1 μM, 10 μM and 100 μM (only dopamine hydrochloride). The above membrane homogenates and [^35S]GTPγS were diluted with assay buffer to a final concentration of 0.06 mg/mL and 0.6 nM, respectively. The serial diluted compounds (50 μL), the diluted membrane homogenates (50 μL) and the diluted [^35S]GTPγS (50 μL) were mixed on multi-screen 96-well plate (Millipore) and shaken lightly at room temperature for 60 minutes. The reaction was terminated by vacuum filtration with three times washes of ice-cold wash buffer (50 mM Tris, 100 mM sodium chloride, 5 mM magnesium chloride, and 1 mM ethylenediamine-tetraacetic acid, pH 7.4). After drying the bottoms of the plate at 60° C., MicroScinti-40 (PerkinElmer) (30 μL) was added in the plate. The tops of the plate were sealed by TopSeal-A (PerkinElmer), and the radioactivity was determined in a TopCount NXT (registered mark)(PerkinElmer) after shaking lightly for 5-10 minutes. The data was analyzed by nonlinear regression and sigmoidal dose-response curve fitting using GraphPad PRISM 4.0 (GraphPad Software), and values of EC50 (concentration of the compound producing half the maximal effect of the compound) were calculated. The data was presented as mean value (n=2).

[2] = target: T2, human serotonin 5-HT2B receptor (Homo sapiens, UniProt P41595); assay: Stimulating activities of human serotonin 5-HT2B receptor, intracellular calcium in forced expression HEK293 cells; assay type: cell-based; conditions: intracellular calcium concentration, mean value (n=2)
T2 construct: expressed in transfected cells; host or cells: HEK293 (transient transfection)
T2 sequence (P41595 whole entry): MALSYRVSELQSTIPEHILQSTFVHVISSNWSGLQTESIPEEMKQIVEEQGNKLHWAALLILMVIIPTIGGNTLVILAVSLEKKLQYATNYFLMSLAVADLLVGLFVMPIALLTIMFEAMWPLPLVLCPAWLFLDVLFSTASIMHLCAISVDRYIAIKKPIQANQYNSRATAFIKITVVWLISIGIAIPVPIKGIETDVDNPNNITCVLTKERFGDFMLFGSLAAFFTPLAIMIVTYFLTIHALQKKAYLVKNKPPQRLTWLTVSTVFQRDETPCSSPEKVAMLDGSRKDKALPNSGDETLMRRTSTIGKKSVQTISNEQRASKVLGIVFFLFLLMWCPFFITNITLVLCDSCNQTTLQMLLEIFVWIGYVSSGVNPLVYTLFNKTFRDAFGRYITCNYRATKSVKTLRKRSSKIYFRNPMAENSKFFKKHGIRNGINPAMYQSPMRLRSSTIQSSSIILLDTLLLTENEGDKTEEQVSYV
Description: Identification Test of Stimulating Activities on Human Serotonin 5-HT2B Receptor
Mostly confluent HEK293 cells were washed with PBS, followed by exfoliation with 0.05% trypsin-EDTA and the cells were suspended in D-MEM liquid medium (phenol red-free, low glucose, pyruvic acid were contained) containing fetal bovine serum (final concentration: 10%) and GlutaMax (registered mark) I (final concentration: 2 mM). The suspension was scattered at 5×10^4 cells/100 μL/well on poly-D-lysine-coated 96-well microplate (BD BioCoat (registered mark)). The scattered cells were cultured in 5% CO2 incubator at 37° C. Human serotonin 5-HT2B receptor expression plasmid was transfected in that cells according to the procedure seeing below.
Human serotonin 5-HT2B receptor expression plasmid and Lipofectamine (registered mark) 2000 (Invitrogen) were diluted to 0.008 g/L and 0.016 g/L each other with OPTI-MEM (registered mark) I Reduced-Serum Medium and incubated at room temperature. After incubation, the human serotonin 5-HT2B receptor expression plasmid-diluted liquid and Lipofectamine (registered mark) 2000-diluted liquid were mixed at an equal volume and incubated at room temperature to form a complex. The complex was dispensed at 50 μL/well on the cells prepared above. The cells were incubated in 5% CO2 incubator at 37° C. for 2 days. After incubation, the cells were used as human serotonin 5-HT2B receptor forced expression cells for measurement of intracellular calcium concentration.
The stimulating activities of human serotonin 5-HT2B receptor was determined by measuring of intracellular calcium concentration. The 30 mM dimethyl sulfoxide (DMSO) solution contained test compounds or serotonin hydrochloride (Sigma) as positive control, was diluted with assay buffer ((HBSS), 20 mM HEPES, 1.3 mM calcium chloride, 0.5 mM magnesium chloride and 0.4 mM magnesium sulfate were contained, pH7.4) to appropriate concentration.
The forced expression cells were washed with assay buffer, and 100 μL/well of fluorescent calcium indicator (Fluo-4 NW Calcium Assay Kit) was added and incubated in 5% CO2 incubator at 37° C. After incubation, 50 μL/well of each test compound was added, and the concentration of intracellular calcium was measured as fluorescent signal with FlexStation (registered mark) II (Molecular Devices). The data was analyzed by nonlinear regression and sigmoidal dose-response curve fitting using GraphPad PRISM 4.0, and values of EC50 (concentration of the compound producing half the maximal effect of the compound) were calculated. The data was presented as mean value (n=2).

[3] = [35S]GTPγS binding, membrane homogenates, mean value (n=2), read-out: EC50

## CCCN1C[C@@H](NC(=O)N(C)CCc2ccccc2)C[C@@H]2Cc3nc(N)ncc3C[C@H]21 (relative stereo) [Compound 1-11]
[1]; [3]
  EC50: 19 nM
[2]
  EC50: > 10000 nM

## CCCN1C[C@@H](NC(=O)N(C)CCOC)C[C@@H]2Cc3nc(N)ncc3C[C@H]21 (relative stereo) [Compound 1-12]
[1]; [3]
  EC50: 43 nM
[2]
  EC50: > 10000 nM

## CCCN1C[C@@H](NC(=O)NC)C[C@@H]2Cc3nc(N)ncc3C[C@H]21 (relative stereo) [Compound 1-13]
[1]; [3]
  EC50: 161 nM
[2]
  EC50: > 10000 nM

## CCCN1C[C@@H](NC(=O)N(C)C2CC2)C[C@@H]2Cc3nc(N)ncc3C[C@H]21 (relative stereo) [Compound 1-16]
[1]; [3]
  EC50: 93 nM
[2]
  EC50: > 10000 nM

## CCCN1C[C@@H](NC(=O)N(CC)CCN2CCc3ccccc3C2)C[C@@H]2Cc3nc(N)ncc3C[C@H]21 (relative stereo) [Compound 1-33]
[1]; [3]
  EC50: 93 nM
[2]
  EC50: > 10000 nM

## CCCN1C[C@@H](NC(=O)N2CCCCC2)C[C@@H]2Cc3nc(N)ncc3C[C@H]21 (relative stereo) [Compound 1-34]
[1]; [3]
  EC50: 63 nM
[2]
  EC50: > 10000 nM

## CCCN1C[C@@H](NC(=O)N(C)CCc2ccncc2)C[C@@H]2Cc3nc(N)ncc3C[C@H]21 (relative stereo) [Compound 1-36]
[1]; [3]
  EC50: 34 nM
[2]
  EC50: > 10000 nM

## CCCN1C[C@@H](NC(=O)N2CCc3ccccc3C2)C[C@@H]2Cc3nc(N)ncc3C[C@H]21 (relative stereo) [Compound 1-37]
[1]; [3]
  EC50: 10 nM
[2]
  EC50: > 10000 nM

## CCCN1C[C@@H](NC(=O)N(C)CCN(C)c2ccccc2)C[C@@H]2Cc3nc(N)ncc3C[C@H]21 (relative stereo) [Compound 1-39]
[1]; [3]
  EC50: 39 nM
[2]
  EC50: > 10000 nM

## CCCN1C[C@@H](NC(=O)N(CC)CCN(C)CCOC)C[C@@H]2Cc3nc(N)ncc3C[C@H]21 (relative stereo) [Compound 1-41]
[1]; [3]
  EC50: 116 nM
[2]
  EC50: > 10000 nM

## CCCN1C[C@@H](CO)C[C@@H]2Cc3nc(N)ncc3C[C@H]21 (relative stereo) [compound 1, [(5aR*,8S*,9aR*)-2-amino-6-propyl-5,5a,6,7,8,9,9a,10-octahydropyrido[2,3-g]quinazolin-8-yl]methanol, reference compound]
[1]; [3]
  EC50: 2900 nM

## CCCN1C[C@@H](NC(=O)N(C)C)C[C@@H]2Cc3nc(N)ncc3C[C@H]21 [Compound 1-5]
[1]
  EC50: 9 nM
